Source: ChEMBL document CHEMBL1201862, “PubChem BioAssay data set” (2004)
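Five concentrations, 48 hours, 96-well plates. GI50 is the concentration that inhibits growth by half.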 The source made the active and inactive calls. No stated cut-off is given here; in the data, active = GI50 up to about 1.1 µM and inactive = higher.

What was measured:
Assay in all cases: DTP human tumour cell line panel, 48 h
OVCAR-4 = tested on: OVCAR-4
LOX IMVI = tested on: LOX IMVI
SNB-19 = tested on: SNB-19
OVCAR-3 = tested on: OVCAR-3
786-0 = tested on: 786-0
SK-MEL-5 = tested on: SK-MEL-5
RPMI-8226 = tested on: RPMI-8226
HCT-15 = tested on: HCT-15
HOP-62 = tested on: HOP-62
ACHN = tested on: ACHN
NCI-H23 = tested on: NCI-H23
K562 = tested on: K562
SK-OV-3 = tested on: SK-OV-3
UACC-257 = tested on: UACC-257
TK-10 = tested on: TK-10
SR = tested on: SR
DU-145 = tested on: DU-145
Hs-578T = tested on: Hs-578T
MDA-MB-231 = tested on: MDA-MB-231

| SMILES | GI50 (OVCAR-4) | GI50 (LOX IMVI) | GI50 (SNB-19) | GI50 (OVCAR-3) | GI50 (786-0) | GI50 (SK-MEL-5) | GI50 (RPMI-8226) | GI50 (HCT-15) [µM] | GI50 (HOP-62) | GI50 (ACHN) | GI50 (NCI-H23) | GI50 (K562) | GI50 (SK-OV-3) | GI50 (UACC-257) | GI50 (TK-10) | GI50 (SR) | GI50 (DU-145) | GI50 (Hs-578T) | GI50 (MDA-MB-231) |
| --- | --- | --- | --- | --- | --- | --- | --- | --- | --- | --- | --- | --- | --- | --- | --- | --- | --- | --- | --- |
| CC(=O)SCCC1c2[nH]c3ccccc3c2CCN1O (stereo unspecified) | > 100 µM (inactive) | 49 µM (inactive) | > 100 µM (inactive) | > 100 µM (inactive) | > 100 µM (inactive) | 83 µM (inactive) | 35.2 µM (inactive) | 71.6 | > 100 µM (inactive) | > 100 µM (inactive) | > 100 µM (inactive) | 32.4 µM (inactive) | > 100 µM (inactive) | > 100 µM (inactive) | > 100 µM (inactive) | – | – | – | – |
| NC1=NN(c2ccccc2)C(=O)C1C(=O)C(=O)NC1C2CC3CC(C2)CC1C3 (stereo unspecified) | > 100 µM (inactive) | > 100 µM (inactive) | > 100 µM (inactive) | > 100 µM (inactive) | > 100 µM (inactive) | > 100 µM (inactive) | – | > 100 | > 100 µM (inactive) | > 100 µM (inactive) | > 100 µM (inactive) | > 100 µM (inactive) | 24.9 µM (inactive) | > 100 µM (inactive) | > 100 µM (inactive) | > 100 µM (inactive) | – | – | – |
| CC(=O)/C(=C\c1ccccc1O)C(=O)Nc1ccccc1C | 29.4 µM (inactive) | 14.3 µM (inactive) | 20.7 µM (inactive) | 25.7 µM (inactive) | 15.4 µM (inactive) | 13.5 µM (inactive) | 15 µM (inactive) | 14.1 | 20.9 µM (inactive) | 17.5 µM (inactive) | 17.7 µM (inactive) | 4.06 µM (inactive) | 51.9 µM (inactive) | 31.9 µM (inactive) | > 10 µM (inactive) | 13.1 µM (inactive) | – | – | – |
| O=S1(=O)CCCS(=O)(=O)C(c2ccccc2)=C1c1ccccc1 | 23.3 µM (inactive) | 33 µM (inactive) | – | 36.6 µM (inactive) | 66.4 µM (inactive) | 52.8 µM (inactive) | 41 µM (inactive) | 27.7 | 30.3 µM (inactive) | 54 µM (inactive) | 50.5 µM (inactive) | 31.9 µM (inactive) | 44.2 µM (inactive) | 69.7 µM (inactive) | > 100 µM (inactive) | 31.6 µM (inactive) | – | – | – |
| CC1=NN(C(=O)Cc2ccccc2)C(=O)/C1=C\c1cccc(O)c1 | > 100 µM (inactive) | > 100 µM (inactive) | > 100 µM (inactive) | > 100 µM (inactive) | > 100 µM (inactive) | > 100 µM (inactive) | > 100 µM (inactive) | > 100 | > 100 µM (inactive) | > 100 µM (inactive) | > 100 µM (inactive) | > 100 µM (inactive) | – | > 100 µM (inactive) | > 100 µM (inactive) | > 100 µM (inactive) | – | – | – |
| Cn1c(=O)c(C(=O)NC(=O)OCc2ccccc2)cn(CCSCCOC(=O)NCCCCCCNC(=O)OCCSCCn2cc(C(=O)NC(=O)OCc3ccccc3)c(=O)n(C)c2=O)c1=O | > 100 µM (inactive) | > 100 µM (inactive) | 41.2 µM (inactive) | – | 83.9 µM (inactive) | > 100 µM (inactive) | > 100 µM (inactive) | > 100 | 36.7 µM (inactive) | > 100 µM (inactive) | > 100 µM (inactive) | > 100 µM (inactive) | – | – | > 100 µM (inactive) | – | – | – | – |
| COc1ccccc1-c1cc(O)c2cc3c(cc2n1)OCO3 | 25.5 µM (inactive) | 52.4 µM (inactive) | 45.3 µM (inactive) | – | 31.9 µM (inactive) | 5.19 µM (inactive) | 38.5 µM (inactive) | 12.3 | 14.3 µM (inactive) | 83.8 µM (inactive) | 54.6 µM (inactive) | 8.65 µM (inactive) | – | 80.9 µM (inactive) | > 100 µM (inactive) | 29.3 µM (inactive) | – | – | – |
| CC(C)(C)C1=C(Br)C(Br)(C(C)(C)C)OP1(=O)c1ccccc1 (stereo unspecified) | > 100 µM (inactive) | > 100 µM (inactive) | > 100 µM (inactive) | > 100 µM (inactive) | > 100 µM (inactive) | > 100 µM (inactive) | – | > 100 | > 100 µM (inactive) | > 100 µM (inactive) | > 100 µM (inactive) | > 100 µM (inactive) | > 100 µM (inactive) | > 100 µM (inactive) | > 100 µM (inactive) | > 100 µM (inactive) | > 100 µM (inactive) | > 100 µM (inactive) | – |
| O=[PH](O)c1cccnc1 | > 100 µM (inactive) | > 100 µM (inactive) | > 100 µM (inactive) | > 100 µM (inactive) | > 100 µM (inactive) | > 100 µM (inactive) | > 100 µM (inactive) | > 100 | > 100 µM (inactive) | > 100 µM (inactive) | > 100 µM (inactive) | > 100 µM (inactive) | > 100 µM (inactive) | > 100 µM (inactive) | > 100 µM (inactive) | > 100 µM (inactive) | – | – | – |
| C/C(=N\NC(=O)CC(=O)N(C(=O)c1ccc(Cl)cc1)c1ccc(C)cc1)c1ccccc1O | 1.67 µM (inactive) | – | 59.4 µM (inactive) | 14 µM (inactive) | 13.4 µM (inactive) | > 100 µM (inactive) | > 100 µM (inactive) | 4.88 | 37 µM (inactive) | 45.6 µM (inactive) | > 100 µM (inactive) | > 100 µM (inactive) | > 100 µM (inactive) | > 100 µM (inactive) | 17.6 µM (inactive) | – | – | – | – |
| COC1CC(Br)(C#N)C1 (stereo unspecified) | > 100 µM (inactive) | – | – | > 100 µM (inactive) | > 100 µM (inactive) | > 100 µM (inactive) | > 100 µM (inactive) | > 100 | > 100 µM (inactive) | – | > 100 µM (inactive) | > 100 µM (inactive) | > 100 µM (inactive) | – | > 100 µM (inactive) | > 100 µM (inactive) | – | – | – |
| CC1(Br)C(=O)NC(=O)N([C@H]2C[C@H](O)[C@@H](CO)O2)C1N=[N+]=[N-] (stereo partly specified) | > 100 µM (inactive) | > 100 µM (inactive) | > 100 µM (inactive) | > 100 µM (inactive) | > 100 µM (inactive) | > 100 µM (inactive) | > 100 µM (inactive) | > 100 | > 100 µM (inactive) | > 100 µM (inactive) | > 100 µM (inactive) | > 100 µM (inactive) | > 100 µM (inactive) | > 100 µM (inactive) | > 100 µM (inactive) | > 100 µM (inactive) | – | – | – |
| CCSc1[nH]c(NC(=S)NC(=O)c2ccccc2Cl)c(C(N)=O)c1C(N)=O | > 10 µM (inactive) | > 10 µM (inactive) | – | – | > 10 µM (inactive) | > 10 µM (inactive) | > 10 µM (inactive) | > 10 | > 10 µM (inactive) | – | > 10 µM (inactive) | > 10 µM (inactive) | > 10 µM (inactive) | > 10 µM (inactive) | > 10 µM (inactive) | > 10 µM (inactive) | > 10 µM (inactive) | – | > 10 µM (inactive) |
| CN1CC[C@]2(C)c3c(O)cccc3CC3CCCC1C32C (stereo partly specified) | – | > 100 µM (inactive) | > 100 µM (inactive) | > 100 µM (inactive) | > 100 µM (inactive) | > 100 µM (inactive) | > 100 µM (inactive) | > 100 | > 100 µM (inactive) | > 100 µM (inactive) | > 100 µM (inactive) | 91.6 µM (inactive) | > 100 µM (inactive) | > 100 µM (inactive) | > 100 µM (inactive) | > 100 µM (inactive) | – | – | – |
| COc1cc(C(C)O)c[n+](CCc2c[nH]c3ccccc23)c1 (stereo unspecified) | > 100 µM (inactive) | > 100 µM (inactive) | > 100 µM (inactive) | 66.5 µM (inactive) | > 100 µM (inactive) | > 100 µM (inactive) | > 100 µM (inactive) | > 100 | > 100 µM (inactive) | > 100 µM (inactive) | > 100 µM (inactive) | > 100 µM (inactive) | – | > 100 µM (inactive) | > 100 µM (inactive) | > 100 µM (inactive) | – | – | – |
| CN(C)Cc1[nH]c2ccccc2c1C(=O)c1ccccc1 | > 100 µM (inactive) | – | > 100 µM (inactive) | > 100 µM (inactive) | > 100 µM (inactive) | 58.1 µM (inactive) | 66.2 µM (inactive) | > 100 | 33 µM (inactive) | > 100 µM (inactive) | > 100 µM (inactive) | 91.6 µM (inactive) | – | > 100 µM (inactive) | > 100 µM (inactive) | 88.3 µM (inactive) | – | – | – |
| COc1ccc(/C=C2\C(=O)N(C(=O)c3ccc(NC(C)=O)cc3)N=C2C)cc1 | > 100 µM (inactive) | > 100 µM (inactive) | > 100 µM (inactive) | > 100 µM (inactive) | > 100 µM (inactive) | > 100 µM (inactive) | > 100 µM (inactive) | > 100 | > 100 µM (inactive) | > 100 µM (inactive) | > 100 µM (inactive) | > 100 µM (inactive) | – | > 100 µM (inactive) | > 100 µM (inactive) | > 100 µM (inactive) | – | – | – |
| N#Cc1ccc(C2SCc3nc4ccccc4n32)cc1 (stereo unspecified) | 83.2 µM (inactive) | – | 81.7 µM (inactive) | > 100 µM (inactive) | > 100 µM (inactive) | 32.7 µM (inactive) | 49.8 µM (inactive) | > 100 | 98.6 µM (inactive) | 63.8 µM (inactive) | 25.6 µM (inactive) | 41.6 µM (inactive) | > 100 µM (inactive) | > 100 µM (inactive) | 81.7 µM (inactive) | – | – | – | – |
| Cn1nc(-c2ccccc2)c2c(/C=C/c3ccc(Cl)cc3)onc2c1=O | – | 25.6 µM (inactive) | 41.5 µM (inactive) | – | 7.6 µM (inactive) | > 100 µM (inactive) | 31.8 µM (inactive) | 26.3 | – | 8.57 µM (inactive) | > 100 µM (inactive) | 40.8 µM (inactive) | > 10 µM (inactive) | – | 33 µM (inactive) | – | – | – | – |
